Here are results for 28 compounds from patent US11840533B2, “Pyridinone-based epigenetic modifiers and uses thereof” (THE BOARD OF TRUSTEES OF THE UNIVERSITY OF ILLINOIS, priority 2017, dated 2023).

The structures appear in SMILES notation.

One may read the IC50 as the concentration that gives 50% inhibition.

This assay deals with fulvestrant-resistant MCF7:5C-FR cells. The experiment in a line: Fulvestrant-resistant breast cancer cell viability (cell proliferation) assay. The format is cell-based. As to conditions: 120 h, growth inhibition in fulvestrant-resistant MCF-7:CFR cells, 120 hrs. The protocol:
For the cell proliferation assay, the fulvestrant-resistant MCF7:5C-FR cells were seeded at about 2000 to about 2500/well in 96-well plates. The next day, compounds were add to the cells at desired serial concentrations form 3 nM to 10 uM. A final 0.1% (v/v) DMSO was used as vehicle control and 1 uM JQ1 was used as positive. The cell were grown in the normal culture condition for 120 hrs. Then the Hoechst 33342 dye were add to each well at a final concentration of 5 μg/ml, and put back to the incubator at 37 C for 90 min. The plates were scanned immediately after the incubation with Celigo (Nexcelcom Biocesnse) for the fluorescence of the nuclear using DAPI channel, and the cell number was counted thought the analysis function of the Celigo software. The normalized cell number to the vehicle control was used to represent the cell proliferation. […] N.D.=Not determined.
Consider `CCS(=O)(=O)Nc1cc(-c2cn(C)c3c(O)nccc23)cc2c1ccn2Cc1cccc(F)c1F` [Compound 48, N-(1-(2,3-difluorobenzyl)-6-(7-hydroxy-1-methyl-1H-pyrrolo[2,3-c]pyridin-3-yl)-1H-indol-4-yl)ethanesulfonamide], for which the IC50 is below 1000 nM.
For `CCS(=O)(=O)Nc1cccc2c1nc(-c1cn(C)c3c(O)nccc13)n2C(C)(c1ccccn1)c1ccccn1` [Compound 69, N-(1-(1,1-di(pyridin-2-yl)ethyl)-2-(7-hydroxy-1-methyl-1H-pyrrolo[2,3-c]pyridin-3-yl)-1H-benzo[d]imidaol-4-yl)ethanesulfonamide] the value was below 1000 nM; for `CC(=O)Nc1cccc2c1cc(-c1cn(C)c3c(O)nccc13)n2[C@@H](c1ccccc1)C1CCOCC1` [Compound 118, (R)-N-(2-(7-hydroxy-1-methyl-1H-pyrrolo[2,3-c]pyridin-3-yl)-1-(phenyl(tetrahydro-2H-pyran-4-yl)methyl)-1H-indol-4-yl)acetamide], below 1000 nM; for `CCS(=O)(=O)Nc1cc(-c2cn(C)c3c(O)nccc23)cc2c1cnn2Cc1c(C)cc(F)cc1C` [Compound 33, N-(1-(4-fluoro-2,6-dimethylbenzyl)-6-(7-hydroxy-1-methyl-1H-pyrrolo[2,3-c]pyridin-3-yl)-1H-indazol-4-yl)ethanesulfonamide], below 1000 nM.
For `Cn1cc(-c2cc(NS(=O)(=O)C3CC3)c3cnn(Cc4ccccc4)c3c2)c2ccnc(O)c21` [Compound 46, N-(1-benzyl-6-(7-hydroxy-1-methyl-1H-pyrrolo[2,3-c]pyridin-3-yl)-1H-indazol-4-yl)cyclopropanesulfonamide] the value was below 1000 nM.
The same measure for `CCS(=O)(=O)Nc1cc(-c2cn(C)c3c(O)nccc23)cc2c1ccn2Cc1ccc(F)cc1Cl` [Compound 26, N-(1-(2-chloro-4-fluorobenzyl)-6-(7-hydroxy-1-methyl-1H-pyrrolo[2,3-c]pyridin-3-yl)-1H-indol-4-yl)ethanesulfonamide]: below 200 nM; for `CCS(=O)(=O)Nc1cc(-c2cn(C)c3c(O)nccc23)cc2c1ccn2Cc1ccc(F)cc1` [Compound 24, N-(1-(4-fluorobenzyl)-6-(7-hydroxy-1-methyl-1H-pyrrolo[2,3-c]pyridin-3-yl)-1H-indol-4-yl)ethanesulfonamide]: below 200 nM; for `CCS(=O)(=O)Nc1cccc2c1nc(-c1cn(C)c3c(O)nccc13)n2Cc1ccc(N(C)C)cc1` [Compound 66, N-(1-(4-(dimethylamino)benzyl)-2-(7-hydroxy-1-methyl-1H-pyrrolo[2,3-c]pyridin-3-yl)-1H-benzo[d]imidaol-4-yl)ethanesulfonamide]: above 100 nM.
As for `CC(C)C(=O)Nc1cc(-c2cn(C)c3c(=O)[nH]ccc23)cc2c1ccn2C(C)(c1ccccn1)c1ccccn1` [Compound 131, N-(1-(1,1-di(pyridin-2-yl)ethyl)-6-(1-methyl-7-oxo-6,7-dihydro-1H-pyrrolo[2,3-c]pyridin-3-yl)-1H-indol-4-yl)isobutyramide], the IC50 is below 100 nM.
For `CCS(=O)(=O)Nc1cc(-c2cn(C)c3c(O)nccc23)cc2c1ncn2[C@H](c1ccccc1)C1CCOCC1` [Compound 64, (S)-N-(6-(7-hydroxy-1-methyl-1H-pyrrolo[2,3-c]pyridin-3-yl)-1-(phenyl(tetrahydro-2H-pyran-4-yl)methyl)-1H-benzo[d]imidaol-4-yl)ethanesulfonamide] the value was below 1000 nM; for `CCS(=O)(=O)Nc1cccc2c1nc(-c1cn(C)c3c(O)nccc13)n2Cc1ccccc1` [Compound 60, N-(1-benzyl-2-(7-hydroxy-1-methyl-1H-pyrrolo[2,3-c]pyridin-3-yl)-1H-benzo[d]imidazol-4-yl)ethanesulfonamide], above 100 nM; for `CCS(=O)(=O)c1cccc2c1nc(-c1cn(C)c3c(O)nccc13)n2[C@H](c1ccccc1)C1CCOCC1` [Compound 115, (S)-3-(4-(ethylsulfonyl)-1-(phenyl(tetrahydro-2H-pyran-4-yl)methyl)-1H-benzo[d]imidazol-2-yl)-1-methyl-1H-pyrrolo[2,3-c]pyridin-7-ol], below 1000 nM.
For `CCS(=O)(=O)Nc1cc(-c2cn(C)c3c(O)nccc23)cc2c1cnn2Cc1cccc(Cl)c1Cl` [Compound 36, N-(1-(2,3-dichlorobenzyl)-6-(7-hydroxy-1-methyl-1H-pyrrolo[2,3-c]pyridin-3-yl)-1H-indazol-4-yl)ethanesulfonamide] the value was below 1000 nM.
The same measure for `Cn1cc(C(Oc2ccc(F)cc2)c2cccc(-c3ccc(F)cc3)c2)c2ccnc(O)c21` (stereo not shown) [Compound 10, 3-((4′-fluoro-[1,1′-biphenyl]-3-yl)(4-fluorophenoxy)methyl)-1-methyl-1H-pyrrolo[2,3-c]pyridin-7-ol]: 300 nM; for `CS(=O)(=O)Nc1cc(-c2cn(CC(=O)CCl)c3c(O)nccc23)cc2c1ccn2Cc1ccccc1` [Compound 99, N-(1-benzyl-6-(1-(3-chloro-2-oxopropyl)-7-hydroxy-1H-pyrrolo[2,3-c]pyridin-3-yl)-1H-indol-4-yl)methanesulfonamide]: below 1000 nM.
`CCS(=O)(=O)Nc1cc(-c2cn(C)c3c(O)nccc23)cc2c1ccn2Cc1cc(Cl)cc(CCN(C)C)c1` [Compound 57, N-(1-(3-chloro-5-(2-(dimethylamino)ethyl)benzyl)-6-(7-hydroxy-1-methyl-1H-pyrrolo[2,3-c]pyridin-3-yl)-1H-indol-4-yl)ethanesulfonamide] registered a half-maximal inhibitory concentration (IC50) above 100 nM.
The same measure for `CCS(=O)(=O)Nc1cc(-c2cn(C)c3c(=O)[nH]ccc23)cc2c1ccn2C(C)(c1nccs1)c1nccs1` [Compound 102, N-(1-(1,1-di(thiazol-2-yl)ethyl)-6-(1-methyl-7-oxo-6,7-dihydro-1H-pyrrolo[2,3-c]pyridin-3-yl)-1H-indol-4-yl)ethanesulfonamide]: below 1000 nM; for `CCC(=O)Nc1cc(-c2cn(C)c3c(=O)[nH]ccc23)cc2c1ccn2C(C)(c1cnccn1)c1cnccn1` [Compound 104, N-(1-(1,1-di(pyrazin-2-yl)ethyl)-6-(1-methyl-7-oxo-6,7-dihydro-1H-pyrrolo[2,3-c]pyridin-3-yl)-1H-indol-4-yl)propionamide]: below 1000 nM.
For `CCS(=O)(=O)Nc1cc(-c2cn(C)c3c(O)nccc23)cc2c1ccn2Cc1ccccc1C(F)(F)F` [Compound 59, N-(6-(7-hydroxy-1-methyl-1H-pyrrolo[2,3-c]pyridin-3-yl)-1-(2-(trifluoromethyl)benzyl)-1H-indol-4-yl)ethanesulfonamide] the value was above 100 nM; for `CNS(=O)(=O)CCc1ccc(O)cc1C(=O)c1cn(C)c2c(O)nccc12` [Compound 12, 2-(4-hydroxy-2-(7-hydroxy-1-methyl-1H-pyrrolo[2,3-c]pyridine-3-carbonyl)phenyl)-N-methylethane-1-sulfonamide], above 1000 nM.
The same measure for `Cn1cc(-c2cc(C(C)(C)O)c3ccn(CC4CC(F)(F)C4)c3c2)c2cc[nH]c(=O)c21` [Compound 106, 3-(1-((3,3-difluorocyclobutyl)methyl)-4-(2-hydroxypropan-2-yl)-1H-indol-6-yl)-1-methyl-1,6-dihydro-7H-pyrrolo[2,3-c]pyridin-7-one]: below 1000 nM; for `Cn1cc(-c2cc(NS(C)(=O)=O)c3ncn(Cc4ccc(F)cc4)c3c2)c2ccnc(O)c21` [Compound 38, N-(1-(4-fluorobenzyl)-6-(7-hydroxy-1-methyl-1H-pyrrolo[2,3-c]pyridin-3-yl)-1H-benzo[d]imidazol-4-yl)methanesulfonamide]: below 200 nM; for `CCS(=O)(=O)Nc1cc(-c2cn(CCCl)c3c(O)nccc23)cc2c1ccn2Cc1ccccc1` [Compound 95, N-(1-benzyl-6-(1-(2-chloroethyl)-7-hydroxy-1H-pyrrolo[2,3-c]pyridin-3-yl)-1H-indol-4-yl)ethanesulfonamide]: above 100 nM.
`Cn1cc(-c2cc(NS(C)(=O)=O)c3ccn(C(C)(c4ccccn4)c4ccccn4)c3c2)c2cc[nH]c(=O)c21` [Compound 132, N-(1-(1,1-di(pyridin-2-yl)ethyl)-6-(1-methyl-7-oxo-6,7-dihydro-1H-pyrrolo[2,3-c]pyridin-3-yl)-1H-indol-4-yl)methanesulfonamide]: inhibition was half-maximal at 13 nM (IC50).
The same measure for `Cn1cc(-c2cc3c(NS(C)(=O)=O)cccc3n2[C@@H](c2ccccc2)C2CCOCC2)c2ccnc(O)c21` [Compound 123, (R)-N-(2-(7-hydroxy-1-methyl-1H-pyrrolo[2,3-c]pyridin-3-yl)-1-(phenyl(tetrahydro-2H-pyran-4-yl)methyl)-1H-indol-4-yl)methanesulfonamide]: below 1000 nM; for `CCS(=O)(=O)Nc1cc(-c2cn(C)c3c(O)nccc23)cc2c1cnn2C(C)(c1ccccn1)c1ccccn1` [Compound 63, N-(1-(1,1-di(pyridin-2-yl)ethyl)-6-(7-hydroxy-1-methyl-1H-pyrrolo[2,3-c]pyridin-3-yl)-1H-indazol-4-yl)ethanesulfonamide]: below 1000 nM.
The same measure for `CCS(=O)(=O)Nc1cc(-c2cn(C)c3c(O)nccc23)cc2c1ccn2Cc1ccc(F)cc1C` [Compound 25, N-(1-(4-fluoro-2-methylbenzyl)-6-(7-hydroxy-1-methyl-1H-pyrrolo[2,3-c]pyridin-3-yl)-1H-indol-4-yl)ethanesulfonamide]: below 200 nM; for `CC(=O)Nc1cc(-c2cn(C)c3c(=O)[nH]ccc23)cc2c1ccn2Cc1cccc(F)c1` [Compound 103, N-(1-(3-fluorobenzyl)-6-(1-methyl-7-oxo-6,7-dihydro-1H-pyrrolo[2,3-c]pyridin-3-yl)-1H-indol-4-yl)acetamide]: below 1000 nM.
